Measurements published in PubChem BioAssay AID2060897 (Molecular Pharmacology Branch, DTP, NCI, 2025).
Values belong to the molecule of their own block, whether it stands above or below them.

Test system: 966289-007-R4-J1-PDC complex spheroid viability
Assay: Anticancer human tumor 966289-007-R4-J1-PDC patient-derived pancreatic adenocarcinoma cell line growth inhibition [RAS]
Settings: for IC50: curve of first compound; for viability, T/C: stronger effect = lower value
Summary of the method: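 Multi-cell-type spheroids: tumor cells plus HUVEC endothelial cells and mesenchymal stem cells. RAS-pathway inhibitors were combined with targeted agents, each dosed in half-log steps down from clinical Cmax, or from 10 microM when Cmax was unknown.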

[1] = second compound 0.000949 µM, first compound 0.0316 µM
[2] = second compound 0.000949 µM, first compound 0.1 µM
[3] = second compound 0.000949 µM, first compound 0.316 µM
[4] = second compound 0.000949 µM, first compound 1 µM
[5] = second compound 0.003 µM, first compound 0.0316 µM
[6] = second compound 0.003 µM, first compound 0.1 µM
[7] = second compound 0.003 µM, first compound 0.316 µM
[8] = second compound 0.003 µM, first compound 1 µM
[9] = second compound 0.00949 µM, first compound 0.0316 µM
[10] = second compound 0.00949 µM, first compound 0.1 µM
[11] = second compound 0.00949 µM, first compound 0.316 µM
[12] = second compound 0.00949 µM, first compound 1 µM
[13] = second compound 0.03 µM, first compound 0.0316 µM
[14] = second compound 0.03 µM, first compound 0.1 µM
[15] = second compound 0.03 µM, first compound 0.316 µM
[16] = second compound 0.03 µM, first compound 1 µM
[17] = second compound 0.0949 µM, first compound 0.0316 µM
[18] = second compound 0.0949 µM, first compound 0.1 µM
[19] = second compound 0.0949 µM, first compound 0.316 µM
[20] = second compound 0.0949 µM, first compound 1 µM
[21] = second compound 0.3 µM, first compound 0.0316 µM
[22] = second compound 0.3 µM, first compound 0.1 µM
[23] = second compound 0.3 µM, first compound 0.316 µM
[24] = second compound 0.3 µM, first compound 1 µM
[25] = second compound 0.000949 µM, first compound 3.16 µM
[26] = second compound 0.000949 µM, first compound 10 µM
[27] = second compound 0.003 µM, first compound 3.16 µM
[28] = second compound 0.003 µM, first compound 10 µM
[29] = second compound 0.00949 µM, first compound 3.16 µM
[30] = second compound 0.00949 µM, first compound 10 µM
[31] = second compound 0.03 µM, first compound 3.16 µM
[32] = second compound 0.03 µM, first compound 10 µM
[33] = second compound 0.0949 µM, first compound 3.16 µM
[34] = second compound 0.0949 µM, first compound 10 µM
[35] = second compound 0.3 µM, first compound 3.16 µM
[36] = second compound 0.3 µM, first compound 10 µM
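Further: spheroids exposed to agents for one week before readout.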
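Wherever viability, T/C is given: percent viability relative to DMSO vehicle control wells as 100%.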

IC50 (second compound 0.000949 µM): 641 nM
IC50 (second compound 0.003 µM): 596 nM
IC50 (second compound 0.00949 µM): 228 nM
IC50 (second compound 0.03 µM): 124 nM
IC50 (second compound 0.0949 µM): 45.2 nM
IC50 (second compound 0.3 µM): 32.1 nM
Structure (SMILES): O=C(c1ccc(F)c(F)c1Nc1ccc(I)cc1F)N1CC(O)([C@@H]2CCCCN2)C1 + CCn1c(-c2cc(N3CCN(C)CC3)cnc2C(C)OC)c2c3cc(ccc31)-c1csc(n1)CC(NC(=O)C1CC1C)C(=O)N1CCCC(N1)C(=O)OCC(C)(C)C2
viability, T/C (second compound 0.000949 µM, first compound 0.00316 µM): 101%
viability, T/C (second compound 0.000949 µM, first compound 0.01 µM): 89.9%
viability, T/C [1]: 106%
viability, T/C [2]: 77.7%
viability, T/C [3]: 74.2%
viability, T/C [4]: 36.2%
viability, T/C (second compound 0.003 µM, first compound 0.00316 µM): 92%
viability, T/C (second compound 0.003 µM, first compound 0.01 µM): 90.8%
viability, T/C [5]: 94.7%
viability, T/C [6]: 74.5%
viability, T/C [7]: 75.5%
viability, T/C [8]: 32.2%
viability, T/C (second compound 0.00949 µM, first compound 0.00316 µM): 83.8%
viability, T/C (second compound 0.00949 µM, first compound 0.01 µM): 96.2%
viability, T/C [9]: 87.8%
viability, T/C [10]: 82.5%
viability, T/C [11]: 37%
viability, T/C [12]: 22.6%
viability, T/C (second compound 0.03 µM, first compound 0.00316 µM): 87.3%
viability, T/C (second compound 0.03 µM, first compound 0.01 µM): 79.3%
viability, T/C [13]: 76.2%
viability, T/C [14]: 54.2%
viability, T/C [15]: 29.9%
viability, T/C [16]: 15.5%
viability, T/C (second compound 0.0949 µM, first compound 0.00316 µM): 97.5%
viability, T/C (second compound 0.0949 µM, first compound 0.01 µM): 93%
viability, T/C [17]: 52.5%
viability, T/C [18]: 34.6%
viability, T/C [19]: 21.1%
viability, T/C [20]: 11%
viability, T/C (second compound 0.3 µM, first compound 0.00316 µM): 93.1%
viability, T/C (second compound 0.3 µM, first compound 0.01 µM): 76.5%
viability, T/C [21]: 52%
viability, T/C [22]: 23.7%
viability, T/C [23]: 19.7%
viability, T/C [24]: 10.4%

IC50 (second compound 0.000949 µM): > 10000 nM
IC50 (second compound 0.003 µM): > 10000 nM
IC50 (second compound 0.00949 µM): > 10000 nM
IC50 (second compound 0.03 µM): > 10000 nM
IC50 (second compound 0.0949 µM): > 10000 nM
IC50 (second compound 0.3 µM): > 10000 nM
Structure (SMILES): C[C@@H](NC(=O)c1ncnc(N)c1Cl)c1ncc(C(=O)Nc2cc(C(F)(F)F)c(Cl)cn2)s1 + CCn1c(-c2cc(N3CCN(C)CC3)cnc2C(C)OC)c2c3cc(ccc31)-c1csc(n1)CC(NC(=O)C1CC1C)C(=O)N1CCCC(N1)C(=O)OCC(C)(C)C2
viability, T/C [1]: 125%
viability, T/C [2]: 120%
viability, T/C [3]: 91.1%
viability, T/C [4]: 73%
viability, T/C [25]: 73.8%
viability, T/C [26]: 103%
viability, T/C [5]: 94.6%
viability, T/C [6]: 113%
viability, T/C [7]: 102%
viability, T/C [8]: 85.1%
viability, T/C [27]: 97%
viability, T/C [28]: 84.2%
viability, T/C [9]: 97.3%
viability, T/C [10]: 116%
viability, T/C [11]: 95.3%
viability, T/C [12]: 69%
viability, T/C [29]: 103%
viability, T/C [30]: 110%
viability, T/C [13]: 79.2%
viability, T/C [14]: 77.2%
viability, T/C [15]: 118%
viability, T/C [16]: 123%
viability, T/C [31]: 117%
viability, T/C [32]: 82%
viability, T/C [17]: 76.6%
viability, T/C [18]: 88.3%
viability, T/C [19]: 119%
viability, T/C [20]: 105%
viability, T/C [33]: 111%
viability, T/C [34]: 150%
viability, T/C [21]: 60.5%
viability, T/C [22]: 101%
viability, T/C [23]: 130%
viability, T/C [24]: 141%
viability, T/C [35]: 116%
viability, T/C [36]: 107%

IC50 (second compound 0.000949 µM): < 31.6 nM
IC50 (second compound 0.003 µM): < 31.6 nM
IC50 (second compound 0.00949 µM): < 31.6 nM
IC50 (second compound 0.03 µM): < 31.6 nM
IC50 (second compound 0.0949 µM): < 31.6 nM
IC50 (second compound 0.3 µM): < 31.6 nM
Structure (SMILES): CC(=O)OC12COC1CC(O)C1(C)C(=O)C(O)C3=C(C)C(OC(=O)C(O)C(NC(=O)OC(C)(C)C)c4ccccc4)CC(O)(C(OC(=O)c4ccccc4)C21)C3(C)C (stereo unspecified) + CCn1c(-c2cccnc2C(C)OC)c2c3cc(ccc31)N1CCOC(CC(NC(=O)C(C(C)C)N(C)C(=O)C3(F)CCN(C(=O)C#CC(C)(C)N(C)C)CC3)C(=O)N3CCCC(N3)C(=O)OCC(C)(C)C2)C1
viability, T/C [1]: 5.96%
viability, T/C [2]: 11.7%
viability, T/C [3]: 9.08%
viability, T/C [4]: 14.2%
viability, T/C [25]: 38%
viability, T/C [26]: 61.4%
viability, T/C [5]: 5.16%
viability, T/C [6]: 12.8%
viability, T/C [7]: 11%
viability, T/C [8]: 16.3%
viability, T/C [27]: 32.3%
viability, T/C [28]: 52%
viability, T/C [9]: 4.31%
viability, T/C [10]: 11.3%
viability, T/C [11]: 10.9%
viability, T/C [12]: 16.3%
viability, T/C [29]: 25.2%
viability, T/C [30]: 59.7%
viability, T/C [13]: 2.88%
viability, T/C [14]: 3.54%
viability, T/C [15]: 8.87%
viability, T/C [16]: 10.5%
viability, T/C [31]: 20.4%
viability, T/C [32]: 49.5%
viability, T/C [17]: 2.26%
viability, T/C [18]: 4.26%
viability, T/C [19]: 3.62%
viability, T/C [20]: 4.99%
viability, T/C [33]: 16.5%
viability, T/C [34]: 26.8%
viability, T/C [21]: 1.97%
viability, T/C [22]: 3.21%
viability, T/C [23]: 4.05%
viability, T/C [24]: 4.51%
viability, T/C [35]: 7.84%
viability, T/C [36]: 9.46%
